pIC50: −log10 of the molar value. Like-named read-outs stand apart in the source and are kept apart here. Each block holds one molecule with its values, some of them ahead of it.
Experiments:
IDE [1] = biological target: T1, IDE (Homo sapiens (Human), UniProt P14735); assay: In vitro protease assay with IDE (cleavage of fluorophore-quencher substrate peptide); assay type: biochemical; details: for activity / potency against IDE (in words): derivatives compared with 6b; for potency of trans-olefin isomer relative to corresponding cis-olefin isomer: trans vs cis isomer, IDE inhibition
T1 sequence (P14735 whole entry): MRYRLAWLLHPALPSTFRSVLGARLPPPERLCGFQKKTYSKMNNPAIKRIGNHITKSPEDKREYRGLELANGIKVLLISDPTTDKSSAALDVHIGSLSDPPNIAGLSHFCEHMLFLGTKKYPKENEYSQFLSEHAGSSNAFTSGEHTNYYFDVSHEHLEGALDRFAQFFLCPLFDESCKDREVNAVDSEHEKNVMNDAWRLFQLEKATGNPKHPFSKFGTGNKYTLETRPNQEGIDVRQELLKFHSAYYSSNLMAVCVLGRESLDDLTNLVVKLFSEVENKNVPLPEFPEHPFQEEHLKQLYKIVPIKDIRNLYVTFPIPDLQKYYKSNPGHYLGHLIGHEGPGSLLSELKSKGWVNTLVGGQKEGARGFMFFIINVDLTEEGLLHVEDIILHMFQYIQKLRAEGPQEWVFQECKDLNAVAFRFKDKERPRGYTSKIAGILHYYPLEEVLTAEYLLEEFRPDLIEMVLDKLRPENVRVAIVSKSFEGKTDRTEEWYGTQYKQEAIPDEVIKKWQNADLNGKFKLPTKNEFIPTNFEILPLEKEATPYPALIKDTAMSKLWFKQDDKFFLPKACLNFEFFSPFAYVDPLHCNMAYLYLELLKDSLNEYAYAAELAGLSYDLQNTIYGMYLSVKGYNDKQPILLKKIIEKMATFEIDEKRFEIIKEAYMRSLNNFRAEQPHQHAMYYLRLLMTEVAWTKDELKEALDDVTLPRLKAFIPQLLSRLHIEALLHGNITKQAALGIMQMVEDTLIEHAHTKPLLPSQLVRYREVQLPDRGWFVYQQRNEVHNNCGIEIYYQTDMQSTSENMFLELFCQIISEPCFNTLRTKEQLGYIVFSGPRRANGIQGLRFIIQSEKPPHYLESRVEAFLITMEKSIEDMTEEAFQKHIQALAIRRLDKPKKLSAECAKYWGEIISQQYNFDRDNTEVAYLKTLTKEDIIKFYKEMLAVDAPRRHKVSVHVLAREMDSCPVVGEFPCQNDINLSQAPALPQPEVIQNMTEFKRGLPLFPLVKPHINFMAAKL
Description: Protease assays with IDE and neprilysin were performed using Mca-RPPGFSAFK(Dnp)-OH substrate peptide (R&D Systems, SEQ ID NO: 6) and purified recombinant human IDE and recombinant human neprilysin (R&D Systems) according to the manufacturer's instructions. For IDE, 2 μL of small molecule dissolved in DMSO was combined with 48 μL 0.2 μg/mL IDE in IDE assay buffer (50 mM Tris, 1 M NaCl, pH 7.5). 50 μL of 20 μM substrate peptide in IDE assay buffer was then added to initiate the reaction, and peptide cleavage was monitored on a fluorescent plate reader (excitation=320 nm; emission=405 nm) for 5 minutes. The above protocol was also used for assaying neprilysin activity, substituting the neprilysin assay buffer (50 mM Tris, 0.05% Brij-35, pH 9.0).
Compounds were synthesized as described previously;^9 in most cases the macrocycle synthesis yielded two isomers corresponding to the cis and trans olefins generated after macrocyclization. Macrocycles were assayed for IDE inhibition by monitoring cleavage of a substrate peptide^13 containing a fluorophore-quencher pair such that cleavage of the model substrate results in increased fluorescence.

Solubility = assay type: physicochemical
IDE [2] = biological target: T1, IDE; assay: In vitro selection of DNA-templated macrocycle library against immobilized IDE; assay type: binding
Description: Selections of the DNA-templated library were performed as described previously.^9 20 μg of IDE was immobilized on 30 μL of Dynabeads His-Tag Isolation and Pulldown (Invitrogen) magnetic particles according to the manufacturer's instructions. Elution of captured DNA-library members was performed by incubating the protein-loaded particles with 200 mM imidazole. Prior to PCR amplification, imidazole was removed from the eluted samples by gel filtration using Princeton Separations Sephadex minicolumns.
Insulin-degrading enzyme (IDE) protein was obtained in its purified form with a poly-histidine tag and immobilized on magnetic particles coated with cobalt. After incubation with the DNA-templated library, non-binding library members were washed away with buffer, and protein-library member complexes were eluted from resin with imidazole (FIG. 1). DNA-templated library members enriched after target selection were PCR amplified with target-specific barcoded primers that appended adaptors required for Illumina high-throughput DNA sequencing. We performed two independent selection replicates with IDE and three independent selections against empty resin as negative control selections. These five barcoded selection PCR amplicons were pooled in equimolar quantities and submitted for Illumina high-throughput DNA sequencing. High-throughput sequencing yielded 19 million sequence reads—an average of ˜3.8 million sequence reads per selection.
After one round of in vitro selection, we identified DNA sequences corresponding to macrocycles A12-B8-C11-D5 (3), A12-B8-C5-D5 (5), A12-B8-C6-D5 (6) and A12-B8-C8-D5 (2) enriched between 4- to 14-fold against IDE (FIG. 2a, IDE selection 1); these same macrocycles were also enriched 3- to 6-fold in a replicate IDE selection (FIG. 2a, IDE selection 2).

[3] = biological target: recombinant human neprilysin (Homo sapiens (Human), UniProt P08473); assay: In vitro protease assay with neprilysin; details: even when assayed at 100 μM
Sequence of recombinant human neprilysin (P08473 whole entry): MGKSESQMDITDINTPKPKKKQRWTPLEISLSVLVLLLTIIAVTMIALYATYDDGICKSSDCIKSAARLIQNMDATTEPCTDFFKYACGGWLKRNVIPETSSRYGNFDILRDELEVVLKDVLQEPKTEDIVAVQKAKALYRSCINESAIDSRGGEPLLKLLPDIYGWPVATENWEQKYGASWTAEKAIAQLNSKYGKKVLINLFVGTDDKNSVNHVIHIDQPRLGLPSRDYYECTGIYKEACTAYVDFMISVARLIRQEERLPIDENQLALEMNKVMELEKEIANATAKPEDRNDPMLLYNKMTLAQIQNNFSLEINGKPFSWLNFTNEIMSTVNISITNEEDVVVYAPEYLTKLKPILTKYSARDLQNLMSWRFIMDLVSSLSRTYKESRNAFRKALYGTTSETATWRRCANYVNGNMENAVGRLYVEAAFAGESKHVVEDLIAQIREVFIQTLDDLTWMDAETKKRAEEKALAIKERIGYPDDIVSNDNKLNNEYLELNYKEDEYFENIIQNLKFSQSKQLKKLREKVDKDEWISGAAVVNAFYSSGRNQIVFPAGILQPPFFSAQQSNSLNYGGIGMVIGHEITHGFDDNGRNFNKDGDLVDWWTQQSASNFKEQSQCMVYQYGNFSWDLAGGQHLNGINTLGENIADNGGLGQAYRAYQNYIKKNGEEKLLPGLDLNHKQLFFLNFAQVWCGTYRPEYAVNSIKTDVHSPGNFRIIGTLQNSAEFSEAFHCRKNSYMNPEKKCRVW

[4] = Biodistribution assay (LC-MS of brain, pancreas, plasma after IP injection); assay type: in vivo, mouse; details: mice, 45 minutes after intraperitoneal injection
Description: Macrocycles were diluted to 0.1 mg/mL or 1 mg/mL in PBS and IP-injected into a mouse to produce a concentration of 1 mg/kg or 10 mg/kg, respectively. After 45 minutes, organs were harvested, and the small-molecule fractions were extracted into a 2:1:1 mixture of chloroform:methanol:water. Samples were evaporated under a stream of nitrogen, resuspended in 100 μL of chloroform and subjected to LC-MS analysis.
The tissue distribution of enriched macrocycles after i.p. injection was examined. […] Briefly, compounds were injected at different concentrations intraperitoneally into mice, and plasma, brain, and pancreas were harvested after 45 minutes. Vehicle-only injections were performed as negative controls. We determined the relative amount of macrocycle present by extracting the organs with organic solvents and quantifying the amount of compound present by LC-MS analysis.

plasma IDE activity = plasma IDE activity (Mus musculus (Mouse), UniProt Q9JHR7); assay: Plasma IDE activity in mice injected with inhibitor; assay type: in vivo; details: 60 min after 10 mg/kg, 20 mg/kg, or 40 mg/kg i.p. injection, vs vehicle
Sequence of plasma IDE activity (Q9JHR7 other isoform, or with tags, fused parts or gaps): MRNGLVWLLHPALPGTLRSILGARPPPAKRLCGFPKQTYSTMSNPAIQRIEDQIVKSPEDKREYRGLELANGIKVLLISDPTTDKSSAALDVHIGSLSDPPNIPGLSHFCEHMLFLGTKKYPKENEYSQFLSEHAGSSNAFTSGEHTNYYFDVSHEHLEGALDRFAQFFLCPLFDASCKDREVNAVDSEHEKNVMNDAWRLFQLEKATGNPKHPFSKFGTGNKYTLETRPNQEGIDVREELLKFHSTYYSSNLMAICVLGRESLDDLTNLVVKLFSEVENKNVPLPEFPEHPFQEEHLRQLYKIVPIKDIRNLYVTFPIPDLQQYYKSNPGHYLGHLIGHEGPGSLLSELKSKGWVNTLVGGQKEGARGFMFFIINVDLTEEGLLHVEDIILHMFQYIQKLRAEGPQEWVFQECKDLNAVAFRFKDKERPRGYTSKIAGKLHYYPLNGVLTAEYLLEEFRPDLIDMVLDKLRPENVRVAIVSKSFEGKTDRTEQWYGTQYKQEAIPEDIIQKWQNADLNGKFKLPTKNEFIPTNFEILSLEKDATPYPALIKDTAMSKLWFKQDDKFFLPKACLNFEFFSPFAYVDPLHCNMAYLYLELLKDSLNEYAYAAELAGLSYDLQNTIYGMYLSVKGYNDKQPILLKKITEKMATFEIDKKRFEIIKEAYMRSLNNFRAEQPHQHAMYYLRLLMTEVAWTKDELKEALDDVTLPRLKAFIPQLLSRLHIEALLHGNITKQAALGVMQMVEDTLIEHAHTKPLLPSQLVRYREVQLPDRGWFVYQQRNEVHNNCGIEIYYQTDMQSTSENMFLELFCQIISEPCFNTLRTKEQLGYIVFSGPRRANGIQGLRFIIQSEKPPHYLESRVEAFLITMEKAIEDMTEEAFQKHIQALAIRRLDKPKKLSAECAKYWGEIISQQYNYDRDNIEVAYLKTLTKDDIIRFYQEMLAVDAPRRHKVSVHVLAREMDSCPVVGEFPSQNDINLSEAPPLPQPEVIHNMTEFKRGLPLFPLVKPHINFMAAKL
Description: Finally, we compared plasma IDE activity in mice injected with 6b with plasma IDE activity in control mice injected with vehicle alone (18:1:1, saline:DMSO:Tween-80). Plasma IDE activity 60 min after 10 mg/kg, 20 mg/kg, or 40 mg/kg i.p. injection of 6b was inhibited by ≧90% (FIG. 9).

IDE [5] = biological target: T1, IDE; assay: Yonetani-Theorell double inhibition of IDE; assay type: biochemical; details: varying concentrations of both 6b and Ii1
Excerpt: The lack of obvious structural relationship between 6b and known IDE substrates, together with its excellent selectivity profile, raised the possibility that 6b may inhibit IDE by binding an allosteric site, rather than the active site. To test this possibility, we assayed IDE in vitro in the presence of varying concentrations of both 6b and Ii1.

recombinant human THOP1 = recombinant human THOP1 (Homo sapiens (Human), UniProt P52888); assay: In vitro protease assay with THOP1; assay type: biochemical
Sequence of recombinant human THOP1 (P52888 whole entry): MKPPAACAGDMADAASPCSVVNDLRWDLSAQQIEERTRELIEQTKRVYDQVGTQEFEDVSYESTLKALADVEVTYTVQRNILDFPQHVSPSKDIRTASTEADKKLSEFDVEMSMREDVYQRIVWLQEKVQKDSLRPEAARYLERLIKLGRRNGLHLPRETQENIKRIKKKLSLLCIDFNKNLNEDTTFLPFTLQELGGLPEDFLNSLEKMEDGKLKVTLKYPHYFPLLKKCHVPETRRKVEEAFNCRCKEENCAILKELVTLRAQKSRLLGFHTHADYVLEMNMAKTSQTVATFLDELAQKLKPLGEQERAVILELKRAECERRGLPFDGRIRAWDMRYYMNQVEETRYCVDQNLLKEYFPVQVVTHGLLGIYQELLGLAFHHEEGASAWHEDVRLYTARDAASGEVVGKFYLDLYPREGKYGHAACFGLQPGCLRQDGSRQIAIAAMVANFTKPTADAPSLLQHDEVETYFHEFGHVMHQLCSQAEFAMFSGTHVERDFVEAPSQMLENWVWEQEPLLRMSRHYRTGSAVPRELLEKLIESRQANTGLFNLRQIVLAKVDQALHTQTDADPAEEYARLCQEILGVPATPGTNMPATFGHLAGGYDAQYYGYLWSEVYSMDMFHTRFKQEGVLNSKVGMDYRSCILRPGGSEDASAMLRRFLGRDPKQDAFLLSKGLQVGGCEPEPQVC
Description: (§1) Protease assays with THOP1 and NLN were performed using MCA-Pro-Leu-Gly-Pro-D-Lys(DNP)-OH (Bachem, SEQ ID NO: 7) and purified recombinant human THOP1 and NLN (R&D Systems) according to the manufacturer's instructions.

[6] = Preliminary pharmacokinetics after i.p. injection (LC-MS quantitation in plasma); details: mice, 20 mg/kg i.p.
recombinant human NLN = recombinant human NLN (Homo sapiens (Human), UniProt Q9BYT8); assay: In vitro protease assay with NLN; assay type: biochemical
Sequence of recombinant human NLN (Q9BYT8 38-704): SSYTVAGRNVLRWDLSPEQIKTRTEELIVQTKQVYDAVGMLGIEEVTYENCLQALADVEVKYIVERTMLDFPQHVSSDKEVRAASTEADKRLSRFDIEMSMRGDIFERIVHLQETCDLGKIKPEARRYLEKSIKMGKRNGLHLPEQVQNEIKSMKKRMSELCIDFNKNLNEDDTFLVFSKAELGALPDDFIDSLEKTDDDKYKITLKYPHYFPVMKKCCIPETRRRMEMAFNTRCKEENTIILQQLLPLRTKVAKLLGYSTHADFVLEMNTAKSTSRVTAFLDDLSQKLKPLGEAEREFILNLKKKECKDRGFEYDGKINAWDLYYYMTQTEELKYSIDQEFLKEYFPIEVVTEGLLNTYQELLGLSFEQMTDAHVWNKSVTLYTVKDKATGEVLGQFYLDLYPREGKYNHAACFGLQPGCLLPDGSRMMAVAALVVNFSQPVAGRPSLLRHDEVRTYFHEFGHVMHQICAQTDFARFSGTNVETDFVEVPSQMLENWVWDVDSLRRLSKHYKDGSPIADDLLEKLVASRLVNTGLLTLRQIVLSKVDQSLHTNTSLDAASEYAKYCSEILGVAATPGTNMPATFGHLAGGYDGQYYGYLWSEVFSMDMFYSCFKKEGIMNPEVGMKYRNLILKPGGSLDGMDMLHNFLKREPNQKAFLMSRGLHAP
Description: as §1

trypsin = assay: Trypsin activity assay (Z-Arg-AMC substrate); details: even when assayed at 100 μM
[7] = fluorophore-quencher model peptide

pIC50 (IDE [1]; [7]): < 4.70
Compound: NC(=O)C1CCCCNC(=O)C(Cc2ccc(C(=O)c3ccccc3)cc2)NC(=O)C(CC2CCCCC2)NC(=O)C(CC2CC2)NC(=O)C=CC(=O)N1 (centres unmarked) [Compound 5a]

pIC50 (IDE [1]; [7]): < 4.00
Compound: NC(=O)C1CCCCNC(=O)CNC(=O)C(CC2CCCCC2)NC(=O)CC(O)C(CC2CCCCC2)NC(=O)C=CC(=O)N1 (centres unmarked) [Compound 4a]

solubility in water or saline (Solubility): < 0.1 M | activity / potency against IDE (in words) (IDE [1]): equipotent
Compound: NCCCC[C@@H]1NC(=O)/C=C/C(=O)NC(C(N)=O)CCCCNC(=O)[C@@H](Cc2ccc(C(=O)c3ccccc3)cc2)NC(=O)[C@H](CC2CCCCC2)NC1=O (some centres unmarked) [Compound 20]

enrichment against IDE (IDE [2]; IDE selection 1, one round): 4- to 14 fold | enrichment against IDE (IDE [2]; replicate IDE selection 2): 3- to 6 fold | potency of trans-olefin isomer relative to corresponding cis-olefin isomer (IDE [1]): > 10 fold
Compound: NC(=O)C1CCCCNC(=O)C(Cc2ccc(C(=O)c3ccccc3)cc2)NC(=O)C(CC2CCCCC2)NC(=O)C(CC2CC2)NC(=O)C=CC(=O)N1 (mixture of isomers) [Compound 5]

pIC50 (IDE [1]; [7]): 6.00
Compound: NC(=O)C1CCCCNC(=O)C(Cc2ccc(C(=O)c3ccccc3)cc2)NC(=O)C(CC2CCCCC2)NC(=O)C(CC2CC2)NC(=O)C=CC(=O)N1 (centres unmarked) [Compound 5b]

pIC50 (IDE [1]; [7]): 5.82
Compound: NC(=O)C1CCCCNC(=O)C(Cc2ccc(C(=O)c3ccccc3)cc2)NC(=O)C(CC2CCCCC2)NC(=O)CC(O)C(CC2CCCCC2)NC(=O)C=CC(=O)N1 (centres unmarked) [Compound 3b]

Compound: NC(=O)CCC1NC(=O)C=CC(=O)NC(C(N)=O)CCCCNC(=O)C(Cc2ccc(C(=O)c3ccccc3)cc2)NC(=O)C(CC2CCCCC2)NC1=O (mixture of isomers) [Compound 6]
enrichment against IDE (IDE [2]; IDE selection 1, one round): 4- to 14 fold | enrichment against IDE (IDE [2]; replicate IDE selection 2): 3- to 6 fold | potency of trans-olefin isomer relative to corresponding cis-olefin isomer (IDE [1]): > 10 fold

enrichment against IDE (IDE [2]; IDE selection 1, one round): 4- to 14 fold | enrichment against IDE (IDE [2]; replicate IDE selection 2): 3- to 6 fold | pIC50 (IDE [1]; [7]): 5.00
Compound: N=C(N)NCCCC1NC(=O)C=CC(=O)NC(C(N)=O)CCCCNC(=O)C(Cc2ccc(C(=O)c3ccccc3)cc2)NC(=O)C(CC2CCCCC2)NC1=O (centres unmarked) [Compound 2]

enrichment against IDE (in words) (IDE [2]): less strongly enriched | activity / potency against IDE (in words) (IDE [1]): inactive | pIC50 (IDE [1]; [7]): < 4.00
Compound: NC(=O)CCC1NC(=O)C=CC(=O)NC(C(N)=O)CCCCNC(=O)CNC(=O)C(CC2CCCCC2)NC1=O (centres unmarked) [Compound 1]

enrichment against IDE (IDE [2]; IDE selection 1, one round): 4- to 14 fold | enrichment against IDE (IDE [2]; replicate IDE selection 2): 3- to 6 fold | potency of trans-olefin isomer relative to corresponding cis-olefin isomer (IDE [1]): > 10 fold
Compound: NC(=O)C1CCCCNC(=O)C(Cc2ccc(C(=O)c3ccccc3)cc2)NC(=O)C(CC2CCCCC2)NC(=O)CC(O)C(CC2CCCCC2)NC(=O)C=CC(=O)N1 (mixture of isomers) [Compound 3]

enrichment against IDE (in words) (IDE [2]): less strongly enriched | activity / potency against IDE (in words) (IDE [1]): inactive
Compound: NC(=O)C1CCCCNC(=O)CNC(=O)C(CC2CCCCC2)NC(=O)CC(O)C(CC2CCCCC2)NC(=O)C=CC(=O)N1 (mixture of isomers) [Compound 4]

Compound: NC(=O)CCC1NC(=O)C=CC(=O)NC(C(N)=O)CCCCNC(=O)C(Cc2ccc(C(=O)c3ccccc3)cc2)NC(=O)C(CC2CCCCC2)NC1=O (centres unmarked) [Compound 6b]
inhibition of neprilysin (NEP) [3]: failed to demonstrate any significant inhibition | detection in brain [4]: none of the three compounds could be detected | detection in pancreas [4]: could be detected | detection in plasma [4]: could be detected | macrocycle concentration in plasma (comparison) [4]: comparable | inhibition of plasma IDE activity (plasma IDE activity): ≥ 90% | binding site relative to Ii1 (double inhibition plot) (IDE [5]): binding sites of Ii1 and 6b are distinct | pIC50 (IDE [1]): 6.85 | pIC50 (IDE [1]; [7]): 7.22 | activation of THOP1 (recombinant human THOP1; at higher concentrations): Slight activation | inhibition of thimet oligopeptidase (THOP1) (recombinant human THOP1; even when assayed at 100 μM): failed to demonstrate any significant inhibition | time of peak blood concentration [6]: 60 min | tolerability of injections [6]: well tolerated | peak blood concentration ([6]; 18:1:1 saline:DMSO:Tween-80): 0.2 µM | activation of NLN (recombinant human NLN; at higher concentrations): Slight activation | inhibition of neurolysin (NLN) (recombinant human NLN; even when assayed at 100 μM): failed to demonstrate any significant inhibition | inhibition of trypsin (trypsin): failed to demonstrate any significant inhibition

Compound: NC(=O)CCC1NC(=O)C=CC(=O)NC(C(N)=O)CCCCNC(=O)C(Cc2ccc(C(=O)c3ccccc3)cc2)NC(=O)C(CC2CCCCC2)NC1=O (centres unmarked) [Compound 6a]
pIC50 (IDE [1]; [7]): 5.25

pIC50 (IDE [1]; [7]): < 4.70
Compound: NC(=O)C1CCCCNC(=O)C(Cc2ccc(C(=O)c3ccccc3)cc2)NC(=O)C(CC2CCCCC2)NC(=O)CC(O)C(CC2CCCCC2)NC(=O)C=CC(=O)N1 (centres unmarked) [Compound 3a]

Compound: N=C(N)NCCC[C@H](NC(=O)[C@@H](CC(=O)NO)Cc1ccc2ccccc2c1)C(=O)N[C@@H](Cc1c[nH]c2ccccc12)C(=O)N[C@@H](CCC(=O)O)C(N)=O [Ii1, reference compound]
pIC50 (recombinant human THOP1): 8.22 | pIC50 (recombinant human NLN): 6.82

Reference: patent US9243038B2, “Macrocyclic insulin-degrading enzyme (IDE) inhibitors and uses thereof” (President and Fellows of Harvard College, priority 2011, dated 2016)
